Experimental findings from patent EP1466613A1, “Compositions for mucosal and oral administration comprising hCG fragments” (Biotempt B.V., priority 2003, dated 2004) are described below.

The assay has as its system NF-kB. The assay can be described thus: EMSA of nuclear extracts for basal and LPS induced NF-kB translocation, RAW 264.7 mouse macrophages (second experiment). The format is cell-based. The note with it: RAW264.7 cells, LPS in combination with peptide, 30 minutes incubation. The protocol: The transcription factor NF-kB participates in the transcriptional regulation of a variety of genes. Nuclear protein extracts were prepared from LPS and peptide treated RAW264.7 cells or from LPS treated RAW264.7 cells. In order to determine whether the peptide modulates the translocation of NF-kB into the nucleus, on these extracts EMSA was performed. Here we see that indeed peptides are able to modulate the translocation of NF-kB since the amount of labeled oligonucleotide for NF-kB is reduced. […] RAW 264.7 mouse macrophages were cultured in DMEM, containing 10% or 2% FBS, penicillin, streptomycin and glutamine, at 37 °C, 5% CO2. Cells were seeded in a 12-wells plate (3x10^6 cells/ml) in a total volume of 1 ml for 2hours and then stimulated with LPS (E. coli 026:B6; Difco Laboratories, Detroit, MI, USA) and/or gene-regulatory peptide(1 microgr/ml). After 30 minutes of incubation plates were centrifuged and cells were collected for nuclear extracts. Nuclear extracts and EMSA were prepared according to Schreiber et al. Cells were collected in a tube and centrifuged for 5 minutes at 2000 rpm (rounds per minute) at 4°C (Universal 30 RF, Hettich Zentrifuges). […]
A general note: Mobility shift assays separate free from complexed probe on a gel.

Ends that are not written are not given here.

Take “circular LQGVLPALPQVVC (also: circular, ring type not given here)”: the “LPS induced translocation of NF-kB” value was “inhibition of LPS induced translocation of NF-kB”.
